Source: ChEMBL document CHEMBL4152336, “Optimization of the first small-molecule relaxin/insulin-like family peptide receptor (RXFP1) agonists: Activation results in an antifibrotic gene expression profile” (Eur J Med Chem, 2018)
Converted amounts (≈) assume the structure as drawn. The source made the active and inactive calls. The rule behind the calls is not given here.

What was measured:
[1] = molecular target: T1, Relaxin receptor 1 (Homo sapiens) (UniProt Q9HBX9); format: functional, cell-based; settings: HEK293
T1 sequence (whole entry): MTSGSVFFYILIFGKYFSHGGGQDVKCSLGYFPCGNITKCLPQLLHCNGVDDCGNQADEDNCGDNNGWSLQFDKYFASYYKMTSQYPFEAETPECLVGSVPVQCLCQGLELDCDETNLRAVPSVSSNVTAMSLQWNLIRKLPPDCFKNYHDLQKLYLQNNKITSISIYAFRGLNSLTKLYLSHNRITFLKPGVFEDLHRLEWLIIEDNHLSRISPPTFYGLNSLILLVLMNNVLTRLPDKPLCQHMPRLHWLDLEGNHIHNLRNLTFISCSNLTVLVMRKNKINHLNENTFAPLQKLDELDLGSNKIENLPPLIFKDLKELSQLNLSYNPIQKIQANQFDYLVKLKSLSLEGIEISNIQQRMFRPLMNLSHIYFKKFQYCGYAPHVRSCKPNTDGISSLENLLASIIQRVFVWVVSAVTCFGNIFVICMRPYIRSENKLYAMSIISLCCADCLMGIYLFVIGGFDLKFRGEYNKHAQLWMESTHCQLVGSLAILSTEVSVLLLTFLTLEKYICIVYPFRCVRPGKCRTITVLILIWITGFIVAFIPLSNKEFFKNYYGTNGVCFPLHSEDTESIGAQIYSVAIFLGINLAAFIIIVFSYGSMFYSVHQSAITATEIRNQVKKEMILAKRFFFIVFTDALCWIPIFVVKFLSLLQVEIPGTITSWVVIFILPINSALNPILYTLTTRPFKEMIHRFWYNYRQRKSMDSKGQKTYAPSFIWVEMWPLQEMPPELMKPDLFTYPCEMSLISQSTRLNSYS

Relaxin receptor 1 = molecular target: T2, Relaxin receptor 1 (Homo sapiens, UniProt Q9HBX9); format: functional, cell-based, HEK293
T2 sequence (Q9HBX9 whole entry): T1 sequence (whole entry)

[2] = Aqueous kinetic solubility of the compound in PBS by shake-flask method; format: physicochemical; settings: for solubility kinetic: PBS, read-out: Kinetic_solubility
[3] = Metabolic stability in mouse liver microsomes assessed as parent compound remaining after 60 mins; format: ADME, microsome; settings: read-out: Stability
[4] = rat, microsomes
Description: Half life in rat liver microsomes

## Cc1ccc(NC(=O)c2ccccc2NC(=O)C2CCCCC2)cc1
[1]
  Efficacy: 32%
Relaxin receptor 1; read-out: EC50
  EC50: 187000 nM

## CCOc1ccccc1C(=O)Nc1ccccc1C(=O)Nc1cccc(C(F)(F)F)c1
[1]
  Efficacy: 94%
Relaxin receptor 1; read-out: EC50
  EC50: 265 nM

## O=C(Nc1ccccc1C(=O)Nc1cccc(C(F)(F)F)c1)c1ccccc1
[1]
  Efficacy: 64%
Relaxin receptor 1; read-out: EC50
  EC50: 1320 nM

## O=C(Nc1cccc(-c2cccc(C(F)(F)F)c2)c1)c1ccccc1NC(=O)C1CCCCC1
[1]
  Efficacy: inactive
Relaxin receptor 1; hek293
  EC50: Not Active

## COc1ccc(C(=O)Nc2ccccc2C(=O)Nc2cccc(C(F)(F)F)c2)cc1
[1]
  Efficacy: 71%
Relaxin receptor 1; read-out: EC50
  EC50: 9400 nM

## COc1ccccc1C(=O)Nc1ccccc1C(=O)Nc1cccc(C(F)(F)F)c1
[1]
  Efficacy: 99%
Relaxin receptor 1; read-out: EC50
  EC50: 334 nM

## O=C(Nc1cccc(-c2ccccc2C(F)(F)F)c1)c1ccccc1NC(=O)C1CCCCC1
[1]
  Efficacy: 74%
Relaxin receptor 1; read-out: EC50
  EC50: 2650 nM

## O=C(Nc1cccc(C(F)(F)F)c1)c1ccccc1NC(=O)C1CCC1
[1]
  Efficacy: 75%
Relaxin receptor 1; read-out: EC50
  EC50: 2970 nM

## CC(C)Oc1ccccc1C(=O)Nc1ccccc1C(=O)Nc1cccc(C(F)(F)F)c1
[1]
  Efficacy: 99%
Relaxin receptor 1; read-out: EC50
  EC50: 471 nM

## O=C(Nc1ccc(C(F)(F)F)cc1)c1ccccc1NC(=O)C1CCCCC1
[1]
  Efficacy: 46%
Relaxin receptor 1; read-out: EC50
  EC50: 94000 nM

## O=C(Nc1cccc(C(F)(F)F)c1)c1ccccc1NC(=O)C1CC1
[1]
  Efficacy: 79%
Relaxin receptor 1; read-out: EC50
  EC50: 8380 nM

## CCOc1ccccc1C(=O)Nc1cnccc1C(=O)Nc1cccc(S(=O)(=O)C(F)(F)F)c1
[2]
  solubility kinetic: < 1000 µM
[1]
  Efficacy: 99%
Relaxin receptor 1; read-out: EC50
  EC50: 2970 nM

## O=C(Nc1ccccc1C(=O)Nc1cccc(C(F)(F)F)c1)c1cccnc1
[1]
  Efficacy: 95%
Relaxin receptor 1; read-out: EC50
  EC50: 5930 nM

## O=C(Nc1ccccc1C(=O)Nc1ccccc1C(=O)NCc1ccco1)c1ccco1
[3]
  remaining at 1 h: 2%
[2]; buffer
  Kinetic_solubility: 3.7 µM

## COc1ccccc1C(=O)Nc1ccccc1C(=O)Nc1cccc(S(=O)(=O)C(F)(F)F)c1
[1]
  Efficacy: 99%
[4]
  t1/2: > 30 min
Relaxin receptor 1; read-out: EC50
  EC50: 188 nM

## CSc1cccc(NC(=O)c2ccccc2NC(=O)C2CCCCC2)c1
[1]
  Efficacy: 84%
Relaxin receptor 1; read-out: EC50
  EC50: 5290 nM

## CCOc1ccccc1S(=O)(=O)Nc1ccccc1C(=O)Nc1cccc(S(=O)(=O)C(F)(F)F)c1
[1]
  Efficacy: inactive
Relaxin receptor 1; hek293
  EC50: Not Active

## CCOc1ccccc1C(=O)Nc1ncccc1C(=O)Nc1cccc(S(=O)(=O)C(F)(F)F)c1
[2]
  solubility kinetic: < 1000 µM
[1]
  Efficacy: 98%
[4]
  t1/2: 19.85 min
Relaxin receptor 1; read-out: EC50
  EC50: 1670 nM

## CN(C)CCOc1ccccc1C(=O)Nc1ccccc1C(=O)Nc1cccc(C(F)(F)F)c1
[1]
  Efficacy: 92%
Relaxin receptor 1; read-out: EC50
  EC50: 3740 nM

## O=C(Nc1cccc([N+](=O)[O-])c1)c1ccccc1NC(=O)C1CCCCC1
[1]
  Efficacy: 93%
Relaxin receptor 1; read-out: EC50
  EC50: 5930 nM

## O=C(Nc1ccccc1C(=O)Nc1cccc(C(F)(F)F)c1)c1ccccc1Cl
[1]
  Efficacy: 92%
Relaxin receptor 1; read-out: EC50
  EC50: 3740 nM

## O=C(Nc1cccc(F)c1)c1ccccc1NC(=O)C1CCCCC1
[1]
  Efficacy: 81%
Relaxin receptor 1; read-out: EC50
  EC50: 13300 nM

## COCCOc1ccccc1C(=O)Nc1ccccc1C(=O)Nc1cccc(C(F)(F)F)c1
[1]
  Efficacy: 98%
Relaxin receptor 1; read-out: EC50
  EC50: 747 nM

## O=C(Nc1cccc(S(=O)(=O)C(F)(F)F)c1)c1ccccc1NC(=O)c1ccccc1OCC(F)(F)F
[1]
  Efficacy: 97%
[4]
  t1/2: > 30 min
Relaxin receptor 1; read-out: EC50
  EC50: 67 nM

## O=C(Nc1cccc(C(F)(F)F)c1)c1ccccc1NC(=O)C1CCCCC1
[3]
  remaining at 1 h: 70%
[1]
  Efficacy: 92%
Relaxin receptor 1; read-out: EC50
  EC50: 1880 nM

## O=C(Nc1cccc(S(=O)(=O)C(F)(F)F)c1)c1ccccc1NC(=O)C1CCCCC1
[1]
  Efficacy: 87%
Relaxin receptor 1; read-out: EC50
  EC50: 1060 nM

## COc1cccc(NC(=O)c2ccccc2NC(=O)C2CCCCC2)c1
[1]
  Efficacy: 74%
Relaxin receptor 1; read-out: EC50
  EC50: 37400 nM

## CC(C)(C)c1cccc(NC(=O)c2ccccc2NC(=O)C2CCCCC2)c1
[1]
  Efficacy: 70%
Relaxin receptor 1; read-out: EC50
  EC50: 2660 nM

## O=C(Nc1cccc(Cl)c1)c1ccccc1NC(=O)C1CCCCC1
[1]
  Efficacy: 89%
Relaxin receptor 1; read-out: EC50
  EC50: 3340 nM

## CCOc1ccccc1C(=O)Nc1ccncc1C(=O)Nc1cccc(S(=O)(=O)C(F)(F)F)c1
[1]
  Efficacy: 97%
[4]
  t1/2: > 30 min
Relaxin receptor 1; read-out: EC50
  EC50: 747 nM

## COc1ccccc1C(=O)N(C)c1ccccc1C(=O)Nc1cccc(C(F)(F)F)c1
[1]
  Efficacy: inactive
Relaxin receptor 1; hek293
  EC50: Not Active

## CCOc1ccccc1C(=O)Nc1cccnc1C(=O)Nc1cccc(S(=O)(=O)C(F)(F)F)c1
[2]
  solubility kinetic: < 1000 µM
[1]
  Efficacy: 73%
[4]
  t1/2: > 30 min
Relaxin receptor 1; read-out: EC50
  EC50: 4710 nM

## CCCCOc1ccccc1C(=O)Nc1ccccc1C(=O)Nc1cccc(S(=O)(=O)C(F)(F)F)c1
[2]
  solubility kinetic: 5.3 µM (≈ 2.76 µg/mL)
[1]
  Efficacy: 98%
[4]
  t1/2: 19.5 min
Relaxin receptor 1; read-out: EC50
  EC50: 47 nM

## O=C(Nc1cccc(C(F)(F)F)c1)c1ccccc1NC(=O)C1CCCC1
[1]
  Efficacy: 88%
Relaxin receptor 1; read-out: EC50
  EC50: 2360 nM

## CCC(CC)C(=O)Nc1ccccc1C(=O)Nc1cccc(C(F)(F)F)c1
[1]
  Efficacy: 59%
Relaxin receptor 1; read-out: EC50
  EC50: 5290 nM

## O=C(Nc1ccccc1)c1ccccc1NC(=O)C1CCCCC1
[1]
  Efficacy: 57%
Relaxin receptor 1; read-out: EC50
  EC50: 94000 nM

## O=C(Nc1cccc(Br)c1)c1ccccc1NC(=O)C1CCCCC1
[1]
  Efficacy: 91%
Relaxin receptor 1; read-out: EC50
  EC50: 2650 nM

## Cc1ccccc1NC(=O)c1ccccc1NC(=O)C1CCCCC1
[1]
  Efficacy: inactive
Relaxin receptor 1; hek293
  EC50: Not Active

## COc1cccc(OC)c1C(=O)Nc1ccccc1C(=O)Nc1cccc(C(F)(F)F)c1
[1]
  Efficacy: 42%
Relaxin receptor 1; read-out: EC50
  EC50: 7470 nM

## O=C(Nc1cccc(SC(F)(F)F)c1)c1ccccc1NC(=O)C1CCCCC1
[1]
  Efficacy: 90%
Relaxin receptor 1; read-out: EC50
  EC50: 1880 nM

## O=C(Nc1cccc(-c2ccccc2)c1)c1ccccc1NC(=O)C1CCCCC1
[1]
  Efficacy: inactive
Relaxin receptor 1; hek293
  EC50: Not Active

## Cc1ccccc1C(=O)Nc1ccccc1C(=O)Nc1cccc(C(F)(F)F)c1
[1]
  Efficacy: 90%
Relaxin receptor 1; read-out: EC50
  EC50: 4200 nM

## CCOc1ccccc1C(=O)Nc1ccccc1C(=O)Nc1cccc(S(=O)(=O)C(F)(F)F)c1
[4]
  t1/2: > 30 min

## O=C(Cc1ccccc1)Nc1ccccc1C(=O)Nc1cccc(C(F)(F)F)c1
[1]
  Efficacy: 86%
Relaxin receptor 1; read-out: EC50
  EC50: 8380 nM

## O=C(NCc1cccc(C(F)(F)F)c1)c1ccccc1NC(=O)C1CCCCC1
[1]
  Efficacy: inactive
Relaxin receptor 1; hek293
  EC50: Not Active

## O=C(NCc1ccco1)c1ccccc1NC(=O)c1ccccc1NC(=O)C1CCCCC1
[1]
  Efficacy: 45%
Relaxin receptor 1; read-out: EC50
  EC50: 9400 nM

## CCCCC(=O)Nc1ccccc1C(=O)Nc1cccc(C(F)(F)F)c1
[1]
  Efficacy: 94%
Relaxin receptor 1; read-out: EC50
  EC50: 5290 nM

## COc1ccccc1C(=O)Nc1ccccc1C(=O)N(C)c1cccc(C(F)(F)F)c1
[1]
  Efficacy: 77%
Relaxin receptor 1; read-out: EC50
  EC50: 29700 nM

## COCCNc1ccccc1C(=O)Nc1cccc(C(F)(F)F)c1
[1]
  Efficacy: 63%
Relaxin receptor 1; read-out: EC50
  EC50: 59300 nM

## O=C(Nc1cccc(C(F)(F)F)c1)c1ccccc1NC(=O)c1ccccc1OC(F)(F)F
[1]
  Efficacy: 96%
Relaxin receptor 1; read-out: EC50
  EC50: 1180 nM

## O=C(Nc1cccc(C(F)(F)F)c1)c1ccccc1NC(=O)C1CCCCCC1
[1]
  Efficacy: 75%
Relaxin receptor 1; read-out: EC50
  EC50: 2110 nM

## CCOc1ccccc1C(=O)Nc1sccc1C(=O)Nc1cccc(S(=O)(=O)C(F)(F)F)c1
[1]
  Efficacy: 95%
Relaxin receptor 1; read-out: EC50
  EC50: 2360 nM

## COc1cccc(C(=O)Nc2ccccc2C(=O)Nc2cccc(C(F)(F)F)c2)c1
[1]
  Efficacy: 94%
Relaxin receptor 1; read-out: EC50
  EC50: 1880 nM

## COc1ccccc1C(=O)Nc1cccc(C(=O)Nc2cccc(C(F)(F)F)c2)c1
[1]
  Efficacy: inactive
Relaxin receptor 1; hek293
  EC50: Not Active
